Literature values as cited in patent US20240400784A1, “Method for Screening Solvent for Extracting Polyvinyl Chloride, Method for Recycling Waste, Recycled Polyvinyl Chloride, and Composition” (LG Chem, Ltd., priority 2021, published 2024).

Conditions: value in Table 1 of Document #1; swollen PVC and solvent volume based on PVC volume

PVC swelling ratio | Compound
1 | Water
1.04 | C1CCCCC1 [Cyclohexane]
12.69 | CCCC(C)=O [2-Pentanone]
7.06 | CC(=O)CC(C)C [4-Methylpentan-2-one]
2.38 | CCOC(C)=O [Ethyl acetate]
1.02 | CCCCCO [1-Pentanol]

Compound | PVC swelling ratio
c1ccccc1 [Benzene] | 1.07
OC1CCCCC1 [Cyclohexanol] | 1.1
